In one test the target is T1, Carbonic anhydrase 4 (Bos taurus, UniProt Q95323).
T1 sequence (Q95323 whole entry): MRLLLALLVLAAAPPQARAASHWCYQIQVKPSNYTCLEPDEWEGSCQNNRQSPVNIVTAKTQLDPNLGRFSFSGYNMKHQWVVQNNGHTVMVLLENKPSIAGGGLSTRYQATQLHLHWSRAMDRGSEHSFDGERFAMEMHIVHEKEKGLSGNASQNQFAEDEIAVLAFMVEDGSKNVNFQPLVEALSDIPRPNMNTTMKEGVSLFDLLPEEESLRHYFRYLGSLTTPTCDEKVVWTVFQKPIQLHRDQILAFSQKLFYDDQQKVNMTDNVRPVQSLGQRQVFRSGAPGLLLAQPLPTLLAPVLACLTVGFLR

A further test concerns the target Carbonic anhydrase 2 (Homo sapiens, UniProt P00918).
The next test deals with Carbonic anhydrase 1 (Homo sapiens, UniProt P00915).
Chain of Carbonic anhydrase 1 (P00915 whole entry): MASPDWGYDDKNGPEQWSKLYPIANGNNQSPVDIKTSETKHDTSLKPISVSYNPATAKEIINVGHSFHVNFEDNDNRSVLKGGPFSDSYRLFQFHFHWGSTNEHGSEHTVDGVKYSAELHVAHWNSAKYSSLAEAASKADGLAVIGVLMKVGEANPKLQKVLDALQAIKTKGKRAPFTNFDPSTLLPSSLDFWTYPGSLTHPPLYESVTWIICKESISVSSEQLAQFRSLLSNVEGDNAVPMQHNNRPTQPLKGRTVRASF
For test [1], the species on record is Oryctolagus cuniculus.
Description: Fall of intraocular pressure (IOP) after treatment with 50 ug into normotensive rabbit at time interval 30 min at a pH of 7
The species entered for test [2] is Oryctolagus cuniculus. The source holds these as a separate data set.
Description: Fall of intraocular pressure (IOP) after treatment with 50 ug into normotensive rabbit at time interval 60 min at a pH of 7
The species entered for test [3] is Oryctolagus cuniculus. This is another data set of the same source.
Description: Fall of intraocular pressure (IOP) after treatment with 50 ug into normotensive rabbit at time interval 90 min at a pH of 7
The species entered for test [4] is Oryctolagus cuniculus. This is another data set of the same source.
Description: Fall of intraocular pressure (IOP) after treatment with 50 ug into normotensive rabbit at time interval 240 min at a pH of 7

What is called Ki is a dissociation constant, usually derived from enzyme kinetics or from competition with a known ligand. Read a high Ki as lower affinity.

Description for Carbonic anhydrase 1: Inhibitory activity against human carbonic anhydrase I (hCA I)
Description for Carbonic anhydrase 2: Inhibitory activity against human carbonic anhydrase II
Description for Carbonic anhydrase 4: Inhibitory activity against Carbonic anhydrase IV isolated from bovine lung

Consider `CC(CN(C)C)OC(=O)c1cccc(S(=O)(=O)/N=c2/sc(S(N)(=O)=O)nn2C)c1` (stereo unspecified), for which the inhibition constant Ki at Carbonic anhydrase 4 stood at 0.012 µM; at Carbonic anhydrase 2, 0.0022 µM; on Carbonic anhydrase 1, 0.018 µM.

At Carbonic anhydrase 4, `NS(=O)(=O)c1nnc(NS(=O)(=O)c2ccccc2)s1` [BENZOLAMIDE] displayed a Ki of 0.012 µM.

Regarding `CN(C)CCOC(=O)c1ccc(S(=O)(=O)/N=c2/sc(S(N)(=O)=O)nn2C)cc1`, the Ki on Carbonic anhydrase 4 worked out at 0.014 µM; on Carbonic anhydrase 2 it was 0.0024 µM; at Carbonic anhydrase 1 it was 0.013 µM.

`CN(C)CCOCCOC(=O)c1cccc(S(=O)(=O)/N=c2/sc(S(N)(=O)=O)nn2C)c1`: the Ki at Carbonic anhydrase 4 came to 0.008 µM; at Carbonic anhydrase 2, 0.002 µM; at Carbonic anhydrase 1, 0.015 µM.

As for `Cn1nc(S(N)(=O)=O)s/c1=N/S(=O)(=O)c1ccc(C(=O)O)cc1`, the Ki worked out at 0.014 µM at Carbonic anhydrase 4, 0.0054 µM on Carbonic anhydrase 2 and 0.05 µM on Carbonic anhydrase 1.

As for `Cn1nc(S(N)(=O)=O)s/c1=N/S(=O)(=O)c1ccc(C(=O)OCCO)cc1`, the Ki was 0.014 µM at Carbonic anhydrase 4, 0.004 µM on Carbonic anhydrase 2 and 0.02 µM on Carbonic anhydrase 1.

Regarding `COCCOC(=O)c1cccc(S(=O)(=O)Nc2nnc(S(N)(=O)=O)s2)c1`, the figures for the Ki on Carbonic anhydrase 4, on Carbonic anhydrase 2 and on Carbonic anhydrase 1 were 0.008 µM, 0.0029 µM and 0.015 µM, respectively. Also, the “Delta IOP” value in the test filed under Oryctolagus cuniculus [1] was 6 mmHg; in the test listed under Oryctolagus cuniculus [2], 2.5 mmHg; in the test listed under Oryctolagus cuniculus [3], 2 mmHg; in the test listed under Oryctolagus cuniculus [4], 0 mmHg.

Consider `CCN(CC)CCNC(=O)c1cccc(S(=O)(=O)/N=c2/sc(S(N)(=O)=O)nn2C)c1`, for which the Ki at Carbonic anhydrase 4 is 0.007 µM; on Carbonic anhydrase 2, 0.0019 µM; on Carbonic anhydrase 1, 0.016 µM.

With `CC(CN(C)C)OC(=O)c1ccc(S(=O)(=O)Nc2nnc(S(N)(=O)=O)s2)cc1` (stereo unspecified), the figures for the inhibition constant (Ki) at Carbonic anhydrase 4, at Carbonic anhydrase 2 and at Carbonic anhydrase 1 were 0.01 µM, 0.0014 µM and 0.013 µM, respectively. Besides, the “Delta IOP” value in the test listed under Oryctolagus cuniculus [1] stood at 4.8 mmHg; in the test listed under Oryctolagus cuniculus [2], 5.9 mmHg; in the test filed under Oryctolagus cuniculus [3] it was 8.2 mmHg; in the test listed under Oryctolagus cuniculus [4], 8 mmHg.

As for `CN(C)CCOC(=O)c1ccc(S(=O)(=O)Nc2nnc(S(N)(=O)=O)s2)cc1`, the Ki at Carbonic anhydrase 4 turned out to be 0.01 µM; on Carbonic anhydrase 2, 0.0015 µM; on Carbonic anhydrase 1, 0.011 µM. Besides, the “Delta IOP” value in the test listed under Oryctolagus cuniculus [1] worked out at 4.5 mmHg; in the test filed under Oryctolagus cuniculus [2] it was 5.5 mmHg; in the test listed under Oryctolagus cuniculus [3], 8 mmHg; in the test listed under Oryctolagus cuniculus [4], 7.6 mmHg.

As for `CN(C)CCOCCOC(=O)c1ccc(S(=O)(=O)Nc2nnc(S(N)(=O)=O)s2)cc1`, the results for the Ki on Carbonic anhydrase 4, on Carbonic anhydrase 2 and on Carbonic anhydrase 1 were 0.007 µM, 0.0013 µM and 0.012 µM, respectively. Moreover, the “Delta IOP” value in the test filed under Oryctolagus cuniculus [1] is 2.7 mmHg; in the test listed under Oryctolagus cuniculus [2] it was 3.9 mmHg; in the test listed under Oryctolagus cuniculus [3] it was 5.7 mmHg; in the test listed under Oryctolagus cuniculus [4], 6.3 mmHg.

For the compound `NS(=O)(=O)c1nnc(NS(=O)(=O)c2cccc(C(=O)O)c2)s1`, the inhibition constant (Ki) at Carbonic anhydrase 4 was 0.013 µM; at Carbonic anhydrase 2, 0.0051 µM; on Carbonic anhydrase 1 it was 0.068 µM.

In the case of `CC(=O)/N=c1/sc(S(N)(=O)=O)nn1C` [METHAZOLAMIDE], the Ki at Carbonic anhydrase 4 turned out to be 0.145 µM.

Turning to `NS(=O)(=O)c1nnc(NS(=O)(=O)c2cccc(C(=O)OCCO)c2)s1`, the Ki at Carbonic anhydrase 4 is 0.008 µM; at Carbonic anhydrase 2 it was 0.0031 µM; on Carbonic anhydrase 1 it was 0.016 µM. Further, the “Delta IOP” value is 10.5 mmHg in the test listed under Oryctolagus cuniculus [1], 4.8 mmHg in the test listed under Oryctolagus cuniculus [2], 2.8 mmHg in the test filed under Oryctolagus cuniculus [3] and 0.5 mmHg in the test filed under Oryctolagus cuniculus [4].

With `CN(C)CCOCCOC(=O)c1ccc(S(=O)(=O)/N=c2/sc(S(N)(=O)=O)nn2C)cc1`, the inhibition constant Ki on Carbonic anhydrase 4 amounted to 0.009 µM; at Carbonic anhydrase 2 it was 0.0017 µM; at Carbonic anhydrase 1 it was 0.013 µM.

Regarding `CCN(CC)CCNC(=O)c1ccc(S(=O)(=O)/N=c2/sc(S(N)(=O)=O)nn2C)cc1`, the Ki on Carbonic anhydrase 4 stood at 0.008 µM; on Carbonic anhydrase 2, 0.0017 µM; at Carbonic anhydrase 1, 0.012 µM.

Take `CCN(CC)CCNC(=O)c1ccc(S(=O)(=O)Nc2nnc(S(N)(=O)=O)s2)cc1`: the figures for the Ki on Carbonic anhydrase 4 and on Carbonic anhydrase 1 were […] and […], respectively.

Turning to `Cn1nc(S(N)(=O)=O)s/c1=N/S(=O)(=O)c1cccc(C(=O)OCCO)c1`, the Ki on Carbonic anhydrase 4 came to 0.01 µM; at Carbonic anhydrase 2, 0.0052 µM; at Carbonic anhydrase 1 it was 0.023 µM.

As for `CC(CN(C)C)OC(=O)c1cccc(S(=O)(=O)Nc2nnc(S(N)(=O)=O)s2)c1` (stereo unspecified), the Ki on Carbonic anhydrase 4 came to 0.008 µM; on Carbonic anhydrase 2, 0.002 µM; at Carbonic anhydrase 1, 0.017 µM. For the same compound, the “Delta IOP” value in the test listed under Oryctolagus cuniculus [1] is recorded as 2.5 mmHg; in the test filed under Oryctolagus cuniculus [2], 6.7 mmHg; in the test filed under Oryctolagus cuniculus [3] it was 8.5 mmHg; in the test listed under Oryctolagus cuniculus [4], 7.9 mmHg.

In the case of `COCCOC(=O)c1ccc(S(=O)(=O)Nc2nnc(S(N)(=O)=O)s2)cc1`, the figures for the Ki at Carbonic anhydrase 4, at Carbonic anhydrase 2 and on Carbonic anhydrase 1 were 0.01 µM, 0.0028 µM and 0.012 µM, respectively.

As to `NS(=O)(=O)c1nnc(NS(=O)(=O)c2ccc(C(=O)O)cc2)s1`, the inhibitory constant (Ki) at Carbonic anhydrase 4 is 0.012 µM; on Carbonic anhydrase 2 it was 0.0046 µM; on Carbonic anhydrase 1 it was 0.045 µM.

For the compound `CN(C)CCOC(=O)c1cccc(S(=O)(=O)/N=c2/sc(S(N)(=O)=O)nn2C)c1`, the results for the Ki on Carbonic anhydrase 4, at Carbonic anhydrase 2 and at Carbonic anhydrase 1 were 0.01 µM, 0.0029 µM and 0.016 µM, respectively.

`CCN(CC)CCNC(=O)c1cccc(S(=O)(=O)Nc2nnc(S(N)(=O)=O)s2)c1`: the Ki on Carbonic anhydrase 4 came to 0.007 µM; on Carbonic anhydrase 2, 0.0017 µM; on Carbonic anhydrase 1, 0.014 µM. Further, the “Delta IOP” value in the test listed under Oryctolagus cuniculus [1] stood at 6.5 mmHg; in the test filed under Oryctolagus cuniculus [2] it was 6.9 mmHg; in the test listed under Oryctolagus cuniculus [3] it was 9.1 mmHg; in the test listed under Oryctolagus cuniculus [4] it was 8 mmHg.

Turning to `NS(=O)(=O)c1nnc(NS(=O)(=O)c2ccc(C(=O)OCCO)cc2)s1`, the Ki at Carbonic anhydrase 4 is 0.011 µM; on Carbonic anhydrase 2, 0.0029 µM; on Carbonic anhydrase 1, 0.014 µM.

As for `COCCOC(=O)c1cccc(S(=O)(=O)/N=c2/sc(S(N)(=O)=O)nn2C)c1`, the results for the Ki on Carbonic anhydrase 4, at Carbonic anhydrase 2 and at Carbonic anhydrase 1 were 0.009 µM, 0.0033 µM and 0.017 µM, respectively.

In the case of `CC(CN(C)C)OC(=O)c1ccc(S(=O)(=O)/N=c2/sc(S(N)(=O)=O)nn2C)cc1` (stereo unspecified), the Ki at Carbonic anhydrase 4 turned out to be 0.013 µM; on Carbonic anhydrase 2, 0.0018 µM; on Carbonic anhydrase 1, 0.015 µM.

For `CN(C)CCOCCOC(=O)c1cccc(S(=O)(=O)Nc2nnc(S(N)(=O)=O)s2)c1`, the Ki at Carbonic anhydrase 4 was 0.006 µM; at Carbonic anhydrase 2, 0.0016 µM; at Carbonic anhydrase 1 it was 0.013 µM. Further, the “Delta IOP” value was 4.9 mmHg in the test listed under Oryctolagus cuniculus [1], 4.5 mmHg in the test listed under Oryctolagus cuniculus [2], 4.1 mmHg in the test filed under Oryctolagus cuniculus [3] and 3.3 mmHg in the test listed under Oryctolagus cuniculus [4].

For `COCCOC(=O)c1ccc(S(=O)(=O)/N=c2/sc(S(N)(=O)=O)nn2C)cc1`, the Ki stood at 0.012 µM on Carbonic anhydrase 4, 0.0031 µM on Carbonic anhydrase 2 and 0.016 µM at Carbonic anhydrase 1.

Regarding `CN(C)CCOC(=O)c1cccc(S(=O)(=O)Nc2nnc(S(N)(=O)=O)s2)c1`, the Ki is 0.007 µM on Carbonic anhydrase 4, 0.0021 µM at Carbonic anhydrase 2 and 0.015 µM at Carbonic anhydrase 1. Further, the “Delta IOP” value came to 4.5 mmHg in the test listed under Oryctolagus cuniculus [1], 4.9 mmHg in the test filed under Oryctolagus cuniculus [2], 7.1 mmHg in the test filed under Oryctolagus cuniculus [3] and 5.7 mmHg in the test listed under Oryctolagus cuniculus [4].

On to `Cn1nc(S(N)(=O)=O)s/c1=N/S(=O)(=O)c1cccc(C(=O)O)c1`, for which the figures for the Ki on Carbonic anhydrase 4, at Carbonic anhydrase 2 and at Carbonic anhydrase 1 were 0.015 µM, 0.0059 µM and 0.073 µM, respectively.

(Values after ChEMBL document CHEMBL1136178, “Carbonic anhydrase inhibitors: topically acting antiglaucoma sulfonamides incorporating esters and amides of 3- and 4-carboxybenzolamide” (Bioorg Med Chem Lett, 2003).)
